Experimental data from paper PMC10914731, “Homo-BacPROTAC-induced degradation of ClpC1 as a strategy against drug-resistant mycobacteria” (Nature Communications, 2024).
Converted amounts (≈) assume the structure as drawn. “And” between values parts separate entries of the source, which are not always exact repeats. Equal entries are not always repeated. Where two headings read alike, the source gives them in different places.

Assays:
[1] = target: ClpC1 NTD protein (M. tuberculosis) (Mycobacterium tuberculosis, UniProt P9WPC9); test: biochemical; format: binding; conditions: for Kd: SPR
Chain of ClpC1 NTD protein (M. tuberculosis) (P9WPC9 1-156, looked up, natural form): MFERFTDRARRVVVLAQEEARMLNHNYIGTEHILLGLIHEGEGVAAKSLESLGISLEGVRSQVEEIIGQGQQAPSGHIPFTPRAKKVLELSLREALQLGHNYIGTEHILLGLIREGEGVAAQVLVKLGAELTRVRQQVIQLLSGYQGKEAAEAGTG

[2] = format: in vitro ADME, Rat
Method in brief: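 Read-out: parent loss by HPLC-MS/MS, first-order fit, half-life scaled to %Qh (well-stirred liver model). Conditions: 1 µmol/l cpd, 0.5 mg/ml microsomes, 100 mM Tris-HCl pH 7.5, 6.5 mM MgCl2, 1 mM NADPH, 37 °C; acetonitrile stop at multiple times.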

[3] = Hepatocyte stability, mice; format: in vitro ADME
Method in brief: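 Cryopreserved mouse hepatocytes (about 1 million cells/mL, pH 7.4, 50% species serum) incubated with 1 µM compound, DMSO <0.05%, at 37 °C for up to 6 h, sampled at 6 time points. Parent remaining measured by HPLC-MS/MS; half-life converted via well-stirred liver model to clearance as % Qh.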

[4] = test system: Msm 700084; test: microbe, parasite or virus in culture; format: cell-based
[5] = test system: Mtb (katG del) ATCC 35822; test: microbe, parasite or virus in culture; format: cell-based
[6] = test system: Mtb Beijing lineage HN878; format: cell-based, Mycobacterium tuberculosis
[7] = target: T1, full-length ClpC1 (Mycolicibacterium smegmatis, UniProt A0R574); test: Cell-free degradation of full-length ClpC1 (WES, SDS-PAGE); format: biochemical, M. smegmatis; conditions: WES / SYPRO Ruby SDS-PAGE, result in words
T1 construct: We also analyzed whether full-length ClpC1 would be degraded in this assay; made in house
T1 sequence (A0R574 whole entry): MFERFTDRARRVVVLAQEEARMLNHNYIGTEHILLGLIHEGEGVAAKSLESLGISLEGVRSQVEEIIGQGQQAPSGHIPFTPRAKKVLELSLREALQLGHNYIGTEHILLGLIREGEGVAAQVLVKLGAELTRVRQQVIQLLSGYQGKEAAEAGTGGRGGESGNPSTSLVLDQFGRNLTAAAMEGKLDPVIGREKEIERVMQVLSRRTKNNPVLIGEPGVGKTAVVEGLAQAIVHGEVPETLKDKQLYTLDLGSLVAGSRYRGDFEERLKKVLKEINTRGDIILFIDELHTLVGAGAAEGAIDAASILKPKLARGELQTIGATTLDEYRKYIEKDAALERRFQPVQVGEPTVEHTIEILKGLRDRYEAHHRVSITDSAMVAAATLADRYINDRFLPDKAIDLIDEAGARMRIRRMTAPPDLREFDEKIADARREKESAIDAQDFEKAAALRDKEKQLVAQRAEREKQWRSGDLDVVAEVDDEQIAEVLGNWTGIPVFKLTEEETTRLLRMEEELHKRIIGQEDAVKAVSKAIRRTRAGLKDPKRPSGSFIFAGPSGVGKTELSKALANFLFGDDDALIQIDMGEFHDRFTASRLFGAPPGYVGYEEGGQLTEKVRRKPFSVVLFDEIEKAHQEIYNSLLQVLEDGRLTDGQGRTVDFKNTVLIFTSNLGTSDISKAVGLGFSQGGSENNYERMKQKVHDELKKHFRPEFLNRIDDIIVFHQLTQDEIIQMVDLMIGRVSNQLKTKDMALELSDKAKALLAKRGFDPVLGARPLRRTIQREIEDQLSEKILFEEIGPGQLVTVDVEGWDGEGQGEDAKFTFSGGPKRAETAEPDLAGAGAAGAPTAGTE
Description: We also analyzed whether full-length ClpC1 would be degraded in this assay, by analyzing the stability of the full-length form monitored by a ClpC1-N-terminal antibody in the WES assays, or directly by SYPRO^TM Ruby stained SDS-PAGE gels in the presence or absence of ClpC1-NTD as additional substrate. The Homo-BacPROTACs tested induced no or only minor degradation of the full-length ClpC1 under these in vitro conditions (Fig. 4e). Whether this is due to hexamer formation stabilizing ClpC1 protomers or missing cofactor(s) of the protease complex, is currently unclear. Likewise, the exact sequential and structural features of native substrates targeted by ClpC1 are not known, except that partially disordered peptide segments can promote degradation.
For SDS-PAGE experiments, reaction samples were treated with 2.7 µl 4x Roti Load 1 (Roth #K929.1), instead of adding sample buffer and fluorescent mastermix, and incubated at 95 °C for 5 min. […] The PageRuler Prestained Protein Ladder (Thermo Scientific #26616) was used as a marker. […]

[8] = target: ClpC1 NTD, M. smegmatis ClpC1P1P2 complex (UniProt A0R574+P9WPC9); format: biochemical; conditions: for ClpC1 NTD peak area: replicates 1 and 2; for % Response: two replicates
Chain of ClpC1 NTD, M. smegmatis ClpC1P1P2 complex (P9WPC9 1-156, looked up, natural form): as the sequence (P9WPC9 1-156, looked up, natural form) above
Chain of ClpC1 NTD, M. smegmatis ClpC1P1P2 complex (A0R574 whole entry): as the sequence (A0R574 whole entry) above

[9] = target: endogenous ClpC1 in Msm #607 cells (Mycolicibacterium smegmatis, UniProt A0R574); format: cell-based, M. smegmatis; conditions: for ClpC1/Total protein / ClpC1 peak area / Total protein: well replicates of independent experiments
Chain of endogenous ClpC1 in Msm #607 cells (A0R574 whole entry): as above

[10] = test system: Mtb H37Rv; conditions: combination with bedaquiline; cited from earlier work
[11] = read-out: ClpC1-NTD KD Mean ± SD
[12] = Mycolicibacterium smegmatis, 700084, read-out: MIC Msm 700084
[13] = Mycobacterium tuberculosis, ATCC35822, M. tuberculosis ATCC 35822, single well replicates
[14] = Mycobacterium tuberculosis, ATCC35822, Mtb (katG del) ATCC 35822, mean ± SD, n = 3 well replicates

## COC(c1ccccc1)C1NC(=O)C(C)NC(=O)C(CC(C)CO)N(C)C(=O)C(Cc2cn(Cc3cn(CCOCCOCCOCCOCCn4cc(Cn5cc(CC6NC(=O)C(C(C)C)NC(=O)C(CC(C)C)N(C)C(=O)C(C(C)C)NC(=O)C(C(OC)c7ccccc7)NC(=O)C(C)NC(=O)C(CC(C)CO)N(C)C6=O)c6ccccc65)nn4)nn3)c3ccccc23)NC(=O)C(C(C)C)NC(=O)C(CC(C)C)N(C)C(=O)C(C(C)C)NC1=O (centres unmarked) [Compound 8]
[1]; individual measurements (source data), listed as 8 (UdSBI-0545), read-out: KD ClpC1-NTD
  Kd: 0.325 nM and 0.439 nM and 0.567 nM and 0.381 nM
[1]; [11]
  Kd: 0.4 ± 0.1 nM
[2]; Rat
  Microsomal Stability Rat QH: 43% and 48.3% and 40.9%
[2]; clearance in microsomes
  Microsomal Stability Rat: 40 %Qh
[3]; Mouse
  Hepatocyte Stability Mouse QH: 50.268%
[3]; clearance in hepatocytes
  Hepatocyte Mice: 32 %Qh
[4]; [12]
  MIC: 8.3 ± 5.1 µM (≈ 18 µg/mL)
[5]; [13]
  MIC: 0.195 µM (≈ 0.423 µg/mL)
[5]; [14]
  MIC: 0.2 µM (≈ 0.434 µg/mL)
[6]; compared to the matching monomers, result in words
  inhibition of bacterial growth, Mtb Beijing strain HN878: more efficient inhibition of bacterial
[7]
  degradation of full-length ClpC1: not significantly degraded
[8]; 8 µM compound, time 0 min
  ClpC1 NTD peak area: 331639 and 301583
  % Response: 94.5282% and 100.62%
[8]; 8 µM compound, time 45 min
  ClpC1 NTD peak area: 314553 and 280109
  % Response: 83.982% and 77.683%
[8]; 8 µM compound, time 90 min
  ClpC1 NTD peak area: 285641 and 244656
  % Response: 56.6216% and 52.7782%
[8]; 8 µM compound, time 150 min
  ClpC1 NTD peak area: 191892
  % Response: 43.2573%
[8]; 8 µM compound, time 240 min
  ClpC1 NTD peak area: 311145 and 177822
  % Response: 45.4516% and 26.6563%
[8]; 8 µM compound, time 360 min
  ClpC1 NTD peak area: 222125 and 221356
  % Response: 26.4436% and 30.03%
[8]; 33 µM compound, time 0 min
  ClpC1 NTD peak area: 810154 and 722357
  % Response: 102.812% and 94.7011%
[8]; 33 µM compound, time 45 min
  ClpC1 NTD peak area: 641074 and 448402
  % Response: 59.8432% and 44.7396%
[8]; 33 µM compound, time 90 min
  ClpC1 NTD peak area: 173883 and 214990
  % Response: 14.8318% and 19.2596%
[8]; 33 µM compound, time 150 min
  ClpC1 NTD peak area: 175010 and 133678
  % Response: 13.2219% and 10.0521%
[8]; 33 µM compound, time 240 min
  ClpC1 NTD peak area: 91238.1 and 172941
  % Response: 6.759% and 11.5705%
[8]; 33 µM compound, time 360 min
  ClpC1 NTD peak area: 204242 and 62562.1
  % Response: 8.812% and 3.58%
[9]; 24 hours, value of the earlier manuscript version quoted in the peer review file, read-out: average DC50, ClpC1 degradation
  DC50: 571 nM
[9]; Msm #607, 24 h of incubation, read-out: average DC50, endogenous ClpC1 degradation
  DC50: 570 ± 400 nM
[9]; conc. 0.00038147 µM
  ClpC1/Total protein: 0.2282 and 0.267 and 0.2648 and 0.2027 and 0.212 and 0.2298 and 0.7429 and 0.8229 and 0.7712
  ClpC1 peak area: 294811 and 344226 and 322628 and 390018 and 426373 and 358944 and 302120 and 328285 and 319637
  Total protein: 1323644 and 1229496 and 1207050 and 1454716 and 1623647 and 1404254 and 524970 and 518103 and 465460
[9]; conc. 0.00305176 µM
  ClpC1/Total protein: 0.2394 and 0.2569 and 0.2557 and 0.2218 and 0.1962 and 0.1042 and 0.78 and 0.7556 and 0.8129
  ClpC1 peak area: 298033 and 275548 and 121574 and 410944 and 384208 and 424052 and 320906 and 252067 and 328696
  Total protein: 1340459 and 981268 and 1285339 and 1343857 and 1404470 and 1166366 and 526872 and 508500 and 521664
[9]; conc. 0.0244141 µM
  ClpC1/Total protein: 0.2203 and 0.2456 and 0.2539 and 0.1932 and 0.1901 and 0.2179 and 0.789 and 0.7808 and 0.8172
  ClpC1 peak area: 219991 and 270896 and 315004 and 406280 and 373553 and 423254 and 300752 and 349284 and 304692
  Total protein: 1364922 and 1422232 and 1199890 and 1138728 and 1425365 and 1445718 and 514950 and 478415 and 517944
[9]; conc. 0.195312 µM
  ClpC1/Total protein: 0.1965 and 0.2082 and 0.2171 and 0.1985 and 0.1828 and 0.1625 and 0.6454 and 0.6178 and 0.5924
  ClpC1 peak area: 206233 and 279281 and 214864 and 343404 and 327767 and 310653 and 236077 and 257791 and 242759
  Total protein: 1201296 and 1238340 and 1118172 and 1039169 and 1528116 and 1322136 and 532053 and 530512 and 524388
[9]; conc. 1.5625 µM
  ClpC1/Total protein: 0.183 and 0.1832 and 0.1776 and 0.1788 and 0.1391 and 0.1421 and 0.6251 and 0.5883 and 0.5813
  ClpC1 peak area: 199828 and 195826 and 198204 and 278984 and 250174 and 259931 and 291643 and 223291 and 227414
  Total protein: 1593808 and 1218853 and 1280312 and 1117747 and 1407385 and 1394918 and 446304 and 425280 and 447143
[9]; conc. 100 µM
  ClpC1/Total protein: 0.09806 and 0.1539 and 0.02961 and 0.1406 and 0.1399 and 0.1212 and 0.4923 and 0.5713 and 0.5017
  ClpC1 peak area: 152582 and 201776 and 136372 and 183701 and 277792 and 199452 and 19555.5 and 216020 and 1024.1
  Total protein: 199420 and 1403452 and 34585.2 and 1085305 and 1442135 and 1125592 and 373184 and 486260 and 397564
[9]; mean of the measurements, read-out: DC50 Mean
  DC50: 571 nM

## COC(c1ccccc1)C1NC(=O)C(C)NC(=O)C(CC(C)CO)N(C)C(=O)C(Cc2cn(C)c3ccccc23)NC(=O)C(Cc2cn(CCCCCn3cc(CC4NC(=O)C(CC(C)C)N(C)C(=O)C(C(C)C)NC(=O)C(C(OC)c5ccccc5)NC(=O)C(C)NC(=O)C(CC(C)CO)N(C)C(=O)C(Cc5cn(C)c6ccccc56)NC4=O)nn3)nn2)NC(=O)C(CC(C)C)N(C)C(=O)C(C(C)C)NC1=O (centres unmarked) [Compound 12]
[1]; individual measurements (source data), listed as 12 (UdSBI-4377), read-out: KD ClpC1-NTD
  Kd: 0.169 nM and 0.284 nM and 0.283 nM and 0.407 nM and 0.412 nM and 0.327 nM and 0.181 nM and 0.203 nM and 0.279 nM
[1]; [11]
  Kd: 0.28 ± 0.08 nM
[1]; monomeric 10 to dimeric 12 / Homo-BacPROTACs versus monomeric compounds
  improvement of SPR KD to ClpC1-NTD, dimer versus monomer (factor): 10
[2]; rat, microsomes, pH 7.5
  Microsomal Stability Rat: < 23 %Qh
  Microsomal Stability Rat QH: <23.1%
[3]; mouse, pH 7.4
  Hepatocyte Mice: 15 %Qh
[4]; Mycolicibacterium smegmatis, 700084, single determinations, read-out: Msm 700084 MIC
  MIC: > 50 µM
[4]; [12]
  MIC: > 50 µM
[5]; M. tuberculosis ATCC 35822, single well replicates
  MIC: 0.098 µM (≈ 0.194 µg/mL)
[5]; [13]
  MIC: 0.098 µM (≈ 0.194 µg/mL)
[5]; [14]
  MIC: 0.1 µM (≈ 0.198 µg/mL)
[6]
  inhibition of bacterial growth, Mtb Beijing strain HN878: more efficient inhibition of bacterial
[9]; read-out: DC50, Mean
  DC50: 170 nM
[9]; read-out: average DC50, endogenous ClpC1 degradation
  DC50: 170 ± 100 nM
[10]
  effect of bedaquiline on activity against Mtb H37Rv: no effect
